How the values were obtained:
[1] = test system: 4T1 and LLC tumor cells, also transfected to overexpress VEGF-C; test: Example 3: syngeneic 4T1 and LLC models incl. VEGF-C overexpressing tumor cells, lymphangitic carcinomatosis; assay type: in vivo, syngeneic mice; conditions: preventative treatment, alone or with an immune modulator or chemotherapy
Protocol: The experiments from Example 2 are performed using the same animal models (4T1 and LLC) in syngeneic mice. Another group of tumor cells is transfected to overexpress VEGF-C to stimulate severe lymphatic dysregulation. Overexpression of VEGF C by tumor cells can result in a severe lymphatic dysregulation and an extremely aggressive lymphangitic carcinomatosis, which is a subset of the groups of dysregulated lymphatic disorders resistant to immunotherapy (Example 1). […] In this experiment, it is evaluated whether advanced tumors with inherent lymphatic dysregulation or with exaggerated lymphatic dysregulation driven by VEGF C hyperexpression can be treated and whether treatment can prevent mice with cancers from progressing to severe lymphangitic carcinomatosis.
Treatment groups include (1) anti-PD-1 mAb alone; (2) anti-PD-1-mAb plus lymphatic system modulator (anti-VEGF C or anti-VEGF R3 mAb, or SAR131675); (3) cisplatin alone; (4) lymphatic system modulator (anti-VEGF C or anti-VEGF R3 mAb, or SAR131675) plus cisplatin; and (5) negative control (no treatment).

[2] = test system: LLC lung cancer or 4T1 breast cancer cells; test: Example 2: syngeneic tumor models treated with lymphatic system modulator plus immunotherapy or chemotherapy; assay type: in vivo, syngeneic mice (C57 Black 6 and BALB/c)
Protocol: One to two million cells of either LLC lung cancer or 4T1 breast cancer cells are subcutaneously implanted into syngeneic mice (C57 Black 6 and BALB/c). Animals are treated with vehicle alone as a control, with chemotherapy (cisplatin), or with immunotherapy alone (anti-PD-1 mAb). Animals are imaged by intravascular ultrasound (IVUS), CT/PET, or MRI, for growth of the primary tumor and for metastatic spread of the tumor. Blood samples are obtained for a multiplexed measure of serum biomarkers of lymphatic biology function (Millipore mouse 24 plex; MAGPMAG-24K). Around Study Day 10, animals are injected with 1-1.5 million more tumor cells into the tail vein. Between Study Days 13 and 16, the primary tumor is surgically resected, and animals resume treatment. […]
Animals are imaged weekly, and blood for serum multiplex measurements is continued and evaluated. Survival studies and analyses are performed, and animals are evaluated based on overall survival, progression-free survival, objective and durable response, and serum biomarker measurements. Lung tissue, lymphatics, and regional lymph nodes and tumor tissue are concurrently evaluated upon animal sacrifice for functional immune evaluation and analysis of the tumor and disease analysis.

| Structure (SMILES) | objective and functional outcomes [1] | progression to lymphangitic carcinomatosis [1] | immunological function ([2]; concurrent with immune modulator (checkpoint inhibitor) or chemotherapy (cisplatin)) | response of animals to single agent ([2]; agent alone) |
| --- | --- | --- | --- | --- |
| CCn1c(N)c(C(=O)NC)c(=O)c2ccc(C#C[C@@](C)(O)COC)nc21 [SAR131675] | significantly improves | no mouse progresses | functional immunological improvements |  |
| N.N.[Cl][Pt][Cl] [cisplatin] |  |  |  | no to marginal response |
